Source: BindingDB's records for patent US20240140931 (Hutchmed, 2024)

Molecular target: T1, Tyrosine-protein phosphatase non-receptor type 11 (Homo sapiens, UniProt Q06124)
T1 sequence (Q06124 whole entry): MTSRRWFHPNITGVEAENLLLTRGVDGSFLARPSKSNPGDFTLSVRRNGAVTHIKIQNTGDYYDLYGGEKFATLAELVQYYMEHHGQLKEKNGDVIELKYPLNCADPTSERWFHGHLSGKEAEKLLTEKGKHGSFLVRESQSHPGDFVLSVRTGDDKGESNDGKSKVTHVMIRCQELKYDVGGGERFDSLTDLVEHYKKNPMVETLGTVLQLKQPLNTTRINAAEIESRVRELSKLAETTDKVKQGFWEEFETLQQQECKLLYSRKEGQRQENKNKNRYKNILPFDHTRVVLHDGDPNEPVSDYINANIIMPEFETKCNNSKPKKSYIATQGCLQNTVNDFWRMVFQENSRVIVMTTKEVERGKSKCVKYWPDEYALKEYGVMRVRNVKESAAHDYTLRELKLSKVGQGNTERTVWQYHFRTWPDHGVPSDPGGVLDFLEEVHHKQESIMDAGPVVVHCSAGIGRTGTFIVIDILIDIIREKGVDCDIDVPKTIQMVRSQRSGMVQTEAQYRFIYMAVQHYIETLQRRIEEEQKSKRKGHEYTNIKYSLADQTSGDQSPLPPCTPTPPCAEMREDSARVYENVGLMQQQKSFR
Experiment: Assay of Full-Length SHP2 Phosphatase Activity Assay
Procedure: 1. Reagents and MaterialsHuman full-length SHP2 recombinant protein: BPS Bioscience, Cat #79018;SHP2 substrate DiFMUP (1 mM): BPS Bioscience, Cat #79769;SHP2 activating peptide (100 μM): BPS Bioscience, Cat #79319-2;DTT: Merck, Cat #DTT-RO;384-well plate: Corning, Cat #3575;96-well plate: Thermo Fisher Scientific, Cat #249952;Instrument: EnVision 2104, PerkinElmer.2. Preparation of Reaction SolutionsThe test compound was dissolved in DMSO and diluted with DMSO to 100.0 μM, and the compound was further 3-fold diluted with DMSO to: 100.00, 33.33, 11.11, 3.70, 1.23, 0.41, 0.14 and 0.05 μM.

SMILES	IC50 [nM]
C#Cc1ccc2c(c1)[C@@H](N)C1(CCN(c3cc(=O)n(-c4cccc(C#N)c4Cl)c(C)n3)CC1)C2 [US20240140931, Compound 268]	1
C#Cc1ccc2c(c1)[C@@H](N)C1(CCN(c3cc(=O)n(-c4cccc(C#N)c4Cl)c(C)n3)CC1)C2 [US20240140931, Compound 267]	> 100
Cc1nc(N2CCC3(CC2)Cc2ccc(C#CCN(C)C)cc2[C@H]3N)cc(=O)n1-c1cccc(Cl)c1Cl [US20240140931, Compound 52]	< 0.5
C#Cc1ccc2c(c1)[C@@H](N)C1(CCN(c3cc(=O)n(-c4cc(OC)ccc4Cl)c(C)n3)CC1)C2 [US20240140931, Compound 44]	13
Cc1nc(N2CCC3(CC2)Cc2ccc(SC4COC4)cc2[C@H]3N)cc(=O)n1-c1cccc(Cl)c1Cl [US20240140931, Compound 81]	2
C#Cc1ccc2c(c1)[C@@H](N)C1(CCN(c3cc(=O)n(-c4ccc(F)c(F)c4Cl)c(C)n3)CC1)C2 (atropisomer, axis not shown) [US20240140931, Compound 113]	5
